Bridge positions count the residues as written; N and C are the ends. Ends that are not written are not given here.
Columns and labels:
hKV1.1 = type: cell-based, human
Description: (§1) We, therefore, aimed at testing the pharmacological activity of sCm39 on a battery of various potassium and sodium ion channels. Among the tested channels were six members of human voltage-gated K^+ (hKV) channels from Shaker family, hKV1.1-hKV1.6 (Figure 3A–F) and three members of Ca^2+-activated potassium channel; hKCa2.2 (SK2, Figure 3I), the small-conductance Ca^2+-activated channel; hKCa3.1 (IKCa1, SK4. Figure 3J), the intermediate-conductance Ca^2+-activated channel expressed in T lymphocytes; and mKCa1.1 (BK, Slo1, MaxiK, Figure 3H), the large-conductance voltage- and Ca^2+-activated channel of mice. In addition, we also screened the effect of Cm39 on hKV11.1 (hERG1, Figure 3G), a voltage-gated cardiac K^+ channel, and two human voltage-gated sodium (hNaV) channels, hNaV1.4 (Figure 3K) and hNaV1.5 (Figure 3L), expressed in skeletal and cardiac muscles, respectively. These ion channels were heterologously expressed in the CHO or HEK cell lines except for KV1.3. Human peripheral T lymphocytes. They were stimulated with Phytohemagglutinin A (PHA) to increase the KV1.3 channel expression, and Ca^2+-free intracellular solution was used to avoid KCa3.1 channel activation. Appropriate depolarization protocols were used to record ionic currents in voltage-clamped cells (see Figure 3 insets and Material and Methods for details). Freshly dissolved sCm39 in extracellular solution was applied at 1 µM concentration on the cell using a custom-built micro-perfusion system at ~200 µL/min flow rate.
(§2) Chinese hamster ovary (CHO) cells (gift from Yosef Yarden, Weizmann Institute of Science, Rehovot, Israel) were maintained by culturing in Dulbecco’s modified Eagle medium (DMEM, Gibco) supplemented with 2 mM L-glutamine, 10% FBS, 100 µg/mL streptomycin and 100 U/mL penicillin-g (Sigma-Aldrich) at a density of 0. 5−1×10^6 cells per mL in a humidified incubator at 37 °C and 5% CO2. Cells were passaged 3 times in a week following a 2–5 min incubation in 0.05% trypsin-EDTA solution at 37 °C. Cultures were used up to passage number 20. PCR-based tests were routinely used to detect mycoplasma infection, only mycoplasma-free cultures were used for experiments.
(§3) Those plasmids which lack a fluorescent tag were co-transfected with a plasmid encoding GFP. Transfections were performed at a GFP:channel DNA molar ratio of 1:10 using the Lipofectamine 2000 kit (Invitrogen) according to the manufacturer’s protocol. […] Generally, currents were recorded 24 to 48 h post transfection.
(§4) For the measurement of KV1.x, mKCa1.1 and NaV1.x currents the extracellular solution was composed of (in mM) 145 NaCl, 5 KCl, 2.5 CaCl2, 1 MgCl2, 10 HEPES and 5.5 glucose, pH 7.35. In the HK-150 and Na^+-free bath solution bath all Na^+ was substituted by K^+ or Choline-Cl, respectively, other ingredients remained unchanged. In the various TEA^+-containing solutions, Na^+ was substituted by tetraethylammonium-Cl in equimolar concentration (Figure 3). The bath solution for KCa2.2 and KCa3.1 consisted of (in mM) 145 L-Aspartic Na^+ salt, 5 KCl, 2.5 CaCl2, 1 MgCl2, 5.5 glucose and 10 HEPES, pH 7.4 and for KV11.1 (in mM) 140 Choline-Cl, 5 KCl, 2 MgCl2, 2 CaCl2, 10 HEPES, 20 glucose and 0.1 CdCl2, pH 7.35. The osmolarity of bath solutions was ranging between 302 to 308 mOsm/L. A total of 0.1 mg/mL bovine serum albumin (BSA, Sigma-Aldrich, Budapest, Hungary) was added to all the bath solutions before the patch-clamp assay to avoid toxin adsorption to the plastic surfaces of the perfusion system. Internal or pipette solution for recording KV1.x and mKCa1.1 currents consisted of (in mM) 140 KF, 2 MgCl2, 1 CaCl2, 11 EGTA and 10 HEPES, pH 7.22.

hKV1.6 = type: cell-based, human
Description: as §1, §2, §3, §4

mKCa1.1 = type: cell-based, mice
Description: as §1, with “rate. […]” for “rate.”
Whole-cell currents were recorded in voltage-clamped cells following standard protocols by using a Multiclamp 700B amplifier connected to a computer with Axon Digidata1440 digitizer and for data acquisition, Clampex 10.7 software was used (Molecular Devices). […]

hKV1.3 = type: cell-based, human
Description: as §1
For the measurement of KV1.x, mKCa1.1 and NaV1.x currents the extracellular solution was composed of (in mM) 145 NaCl, 5 KCl, 2.5 CaCl2, 1 MgCl2, 10 HEPES and 5.5 glucose, pH 7.35. In the HK-150 and Na^+-free bath solution bath all Na^+ was substituted by K^+ or Choline-Cl, respectively, other ingredients remained unchanged. […]
Whole-cell currents were recorded in voltage-clamped cells following standard protocols by using a Multiclamp 700B amplifier connected to a computer with Axon Digidata1440 digitizer and for data acquisition, Clampex 10.7 software was used (Molecular Devices).

hKV1.2 = molecular target: T1, hKV1.2 (Homo sapiens, UniProt P16389); experiment: Whole-cell patch-clamp, block of KV1.2 current; type: cell-based; conditions: fully reversible blocker as positive control
T1 construct: GFP (vector pCMV6-AC-GFP); host or cells: CHO cells, transient transfection
T1 sequence (P16389 whole entry): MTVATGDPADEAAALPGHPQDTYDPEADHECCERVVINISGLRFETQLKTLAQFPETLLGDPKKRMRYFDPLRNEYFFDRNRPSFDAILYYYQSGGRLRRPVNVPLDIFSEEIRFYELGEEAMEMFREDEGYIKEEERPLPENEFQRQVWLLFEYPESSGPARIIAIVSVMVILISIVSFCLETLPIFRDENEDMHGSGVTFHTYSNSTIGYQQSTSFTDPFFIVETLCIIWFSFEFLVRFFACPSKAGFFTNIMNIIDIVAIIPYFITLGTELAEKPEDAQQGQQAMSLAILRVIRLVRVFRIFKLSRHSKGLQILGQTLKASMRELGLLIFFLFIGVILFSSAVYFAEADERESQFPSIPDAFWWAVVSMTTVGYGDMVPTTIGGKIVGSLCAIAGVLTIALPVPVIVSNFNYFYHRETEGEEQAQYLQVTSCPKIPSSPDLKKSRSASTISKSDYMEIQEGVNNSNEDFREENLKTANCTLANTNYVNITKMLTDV
Description: as §1
For comprehensive characterization of Cm39 activity on KV1.2, we determined the concentration–response of current inhibition by Cm39, the kinetic parameters of its binding and assessed the effect on voltage dependence of steady-state activation. The whole-cell KV1.2 currents were recorded in CHO cells using depolarization pulses to +50mV from −120mV holding potential (Vh) every 15 s. Since the activation kinetics of KV1.2 are highly variable, the duration of pulses was set on a cell-by-cell basis between 15–300 ms to allocate sufficient time for reaching maximum currents at the test potentials. […] The remaining current fractions (RCF = I/I0, where I0 is the peak current in the absence of the toxin, and I is the peak current at equilibrium block in the presence of sCm39 at a given concentration) were calculated and plotted as a function of toxin concentration.
Single-exponential decay functions were fitted to the normalized peak currents in the presence of each sCm39 concentration (Figure 4C, data points in red shades) to determine the time constant for the onset of block (τon, wash-in or association time constant). The dissociation time constant for the relief from block (τoff, wash-out time constant) was obtained by fitting a single-exponential rising function to the normalized peak currents in the wash-out procedure (Figure 4C, data point in black empty circles). Assuming a simple bimolecular interaction between the toxin and the channel, time constants for the onset and recovery from the block can be stated as follows:(1) τon=1/kon×[toxin]+koff , τoff=1/koff where kon represents the second-order association rate constant, koff indicates the first-order dissociation rate constant and [toxin] is the sCm39 concentration. […] The second-order rate constant of association (kon) was determined by fitting the 1/τon data points using linear regression with koff as the y-intercept.

KV1.2 = conditions: cited from earlier work
Description: (§5) Most of the peptides in subfamily 4 are very similar (percentage identity ranging from 78 to 97%) and share common pharmacological targets, including KV1.3, KV1.2 and KCa channels. […] Not all subfamily 4 toxins have been tested on the KV1.3 channel, but for those that were te ...

KV1.3 = conditions: cited from earlier work
Description: Most of the peptides in subfamily 4 are very similar (percentage identity ranging from 78 to 97%) and share common pharmacological targets, including KV1.3, KV1.2 and KCa channels. […] Not all subfamily 4 toxins have been tested on the KV1.3 channel, but for those that were te ... || Generally, scorpion toxins interact at two different regions of KV channels to modify their function. Typical functional dyad (lysine and tyrosine) bearing toxins bind to the extracellular vestibule in such a way that lysine goes deep into selectivity filter, thereby plugging the pore of the channel. Other toxins interact with the voltage-sensing domain (VSD) causing the significant change in gating of the channel.

KCa3.1 channel = conditions: cited from earlier work
Description: as §5, with “... || To date, a number of scorpion-derived peptide toxins are known to block K^+ channels with great affinity. However, these native toxins target more than one channel which compromises their therapeutic use in the management of channelopathies.” for “...”

[1] = tested on: several KV1.x channel subtypes and Ca^2+-activated channels; conditions: high affinity; cited from earlier work
Description: To date, a number of scorpion-derived peptide toxins are known to block K^+ channels with great affinity. However, these native toxins target more than one channel which compromises their therapeutic use in the management of channelopathies.

KCa2.2 channel = conditions: cited from earlier work
Description: as §5, with “... || To date, a number of scorpion-derived peptide toxins are known to block K^+ channels with great affinity. However, these native toxins target more than one channel which compromises their therapeutic use in the management of channelopathies.” for “...”

Molecule: CC[N+](CC)(CC)CC [TEA^+, tetraethylammonium chloride, reference compound]
- current response to positive control (hKV1.1): decrease in the current
- current response to positive control (hKV1.6): decrease in the current
- current response to positive control (mKCa1.1): decrease in the current
- current response to positive control (hKV1.3): decrease in the current

Molecule: ChTx
- current response to positive control (hKV1.2): decrease in the current
- effect on KV1.2 (KV1.2): shows effects
- effect on KV1.3 (KV1.3): shows effects
- Kd (KCa3.1 channel): 5 nM
- affinity range [1]: picomolar to nanomolar

Molecule: Leiurotoxin I: isolated from Leiurus quinquestriatus hebraeus (AFCNLRMCQLSCRSLGLLGKCIGDKCECVKH; UniProt P16341 1-31, looked up)
- inhibition of KCa2.x subtypes (KCa2.2 channel; small-conductance Ca^2+-activated potassium channel KCa2.x subtypes): potent inhibitor

Molecule: MgTx (TIINVKCTSPKQCLPPCKAQFGQSAGAKCMNGKCKCYPH; UniProt P40755 1-39, looked up)
- affinity range [1]: picomolar to nanomolar

Molecule: apamin (CNCKAPETALCARRCQQH-NH2; disulfide 1-11, 3-15; ends not checked; UniProt P01500 28-45, looked up)
- blocking effect on KCa2 (small-conductance K^+ channel, SK) (KCa2.2 channel): picomolar range

From PMC9866218, “Characterization and Chemical Synthesis of Cm39 (α-KTx 4.8): A Scorpion Toxin That Inhibits Voltage-Gated K^+ Channel KV1.2 and Small- and Intermediate-Conductance Ca^2+-Activated K^+ Channels KCa2.2 and KCa3.1” (Toxins, 2023)
